{
  "source": "paper PMC10464297",
  "about": "“Reevaluation of bromodomain ligands targeting BAZ2A” (Protein Science : A Publication of the Protein Society, 2023)",
  "key": {"[1]": {"system": "PC3 (AR‐negative) PCa cells", "test": "2D proliferation assay (resazurin), PC3", "format": "cell-based", "protocol": "Cell cultures, proliferation assay and spheroid gro wth […]\nstreptomycin and 2 m M L-glutamine. All cells were regularly tested for mycoplasma contamination.\nFor the proliferation assay, cells were counted with a hemocytometer and seeded in triplicates in 96-well plates (4 .5x10^3 cells/well for 22Rv1 and 2.0x103 for PC3) and let adhere overnight at 37°C, […]\n(§1) transfected with siRNA for BAZ2A , RLUC or KIF11, as detailed below. The cells were incubated for 1, 3, 6 (PC3) and 9 days (22Rv1) and the medium containing either the carrier or the inhibitors was replaced every 3 day s. Cell proliferation and viability were determined at day 1, 3, 6 and 9 by adding 10% resazurin sodium salt solution (0. 03 mg/ml powder from Sigma -Aldrich) directly into each well and incubating them for 4h at 37°C, 5% CO 2. The absorbance at 570/600 nm was measured using a Varioskan plate reader. The reduction of the resazur in sodium salt was calculated using the formula: (Abs x – Abs 0. 1%DMSO day1)/(Abs 0. 1%DMSO day9 - Abs 0. 1%DMSO day1). The growth rate was analysed using the linear regression algorithm of GraphPad Prism. […]"}, "[2]": {"system": "22Rv1 (AR‐positive) PCa cells", "test": "2D proliferation assay (resazurin), 22Rv1", "format": "cell-based", "protocol": "Cell cultures, proliferation assay and spheroid gro wth\nPC3 and 22Rv1 cells were cultured in RPMI 1640 medium containing 10% FBS, 1% penicillin-streptomycin and 2 m M L-glutamine. All cells were regularly tested for mycoplasma contamination.\nFor the proliferation assay, cells were counted with a hemocytometer and seeded in triplicates in 96-well plates (4 .5x10^3 cells/well for 22Rv1 and 2.0x103 for PC3) and let adhere overnight at 37°C, 5% CO2. The following day, the medium was replaced with RPMI 1640 containing either the carrier […]\nas §1"}, "[3]": {"system": "heterogeneous PCa cell population", "set-up": "method as in Peña‐Hernández et al., [2021]", "details": "ref Peña‐Hernández et al., [2021]; cited from earlier work"}},
  "note": "Entries after “also recorded” stand apart in the source; their conditions may differ.",
  "data": [
    {"smiles": "Cn1cc(CCn2cnc(-c3cnn(C)c3)c2-c2ccc(C#N)cc2)cn1", "note": "[BAZ2‐ICR]", "values": [
      {"measurement": "effect on 2D growth of PC3 cells", "setting": "[1]; 2D‐cell culture, PC3", "result": "did not affect growth; also recorded: but not BAZ2‐ICR, reduces 2D growth"},
      {"measurement": "effect on viability of PC3 cells", "setting": "[1]; 2D‐cell culture, PC3", "result": "did not affect growth or viability"},
      {"measurement": "Slope (best-fit, linear regression of growth curve)", "setting": "[1]; PC3, 0.5 µM", "result": "0,1625"},
      {"measurement": "Slope (best-fit, linear regression of growth curve)", "setting": "[1]; PC3, 5 µM", "result": "0,1599"},
      {"measurement": "Slope (best-fit, linear regression of growth curve)", "setting": "[1]; PC3, 10 µM", "result": "0,1532"},
      {"measurement": "Slope (best-fit, linear regression of growth curve)", "setting": "[1]; PC3, 25 µM", "result": "0,1580"},
      {"measurement": "effect on 2D growth of 22Rv1 cells", "setting": "[2]; 2D‐cell culture, 22Rv1", "result": "did not affect growth; also recorded: but not BAZ2‐ICR, reduces 2D growth"},
      {"measurement": "effect on viability of 22Rv1 cells", "setting": "[2]; 2D‐cell culture, 22Rv1", "result": "did not affect growth or viability"},
      {"measurement": "Slope (best-fit, linear regression of growth curve)", "setting": "[2]; 22Rv1, 0.5 µM", "result": "0,1041"},
      {"measurement": "Slope (best-fit, linear regression of growth curve)", "setting": "[2]; 22Rv1, 5 µM", "result": "0,1046"},
      {"measurement": "Slope (best-fit, linear regression of growth curve)", "setting": "[2]; 22Rv1, 10 µM", "result": "0,1034"},
      {"measurement": "Slope (best-fit, linear regression of growth curve)", "setting": "[2]; 22Rv1, 25 µM", "result": "0,1066"},
      {"measurement": "proliferation of heterogeneous PCa cell population", "setting": "[3]", "result": "does not affect the proliferation"}
    ]}
  ]
}
